# Assay results published in ChEMBL document CHEMBL2034887, “Substituted phenoxypropyl-(R)-2-methylpyrrolidine aminomethyl ketones as histamine-3 receptor inverse agonists” (Bioorg Med Chem Lett, 2012).
# Calls of active or inactive are those of the source. No cut-off for these calls is given here.
# Legend:
# Cytochrome P450 1A2 = molecular target: T1, Cytochrome P450 1A2 (Homo sapiens, UniProt P05177); experiment: (§1) Inhibition of CYP1A2; format: ADME
# T1 sequence (P05177 whole entry): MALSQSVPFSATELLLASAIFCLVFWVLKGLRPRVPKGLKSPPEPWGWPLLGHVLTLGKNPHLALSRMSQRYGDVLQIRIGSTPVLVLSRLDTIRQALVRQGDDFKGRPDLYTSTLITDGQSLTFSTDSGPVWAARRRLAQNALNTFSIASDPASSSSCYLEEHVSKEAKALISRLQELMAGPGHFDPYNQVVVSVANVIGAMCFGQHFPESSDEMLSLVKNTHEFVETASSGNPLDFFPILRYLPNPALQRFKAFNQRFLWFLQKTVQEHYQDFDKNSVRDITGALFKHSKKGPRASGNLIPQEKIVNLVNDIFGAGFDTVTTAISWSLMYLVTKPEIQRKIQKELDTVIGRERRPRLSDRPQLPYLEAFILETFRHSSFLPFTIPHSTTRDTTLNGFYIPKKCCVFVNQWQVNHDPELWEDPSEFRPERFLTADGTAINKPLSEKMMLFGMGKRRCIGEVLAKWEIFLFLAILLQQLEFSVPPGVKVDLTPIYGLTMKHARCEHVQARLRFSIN
# Histamine H3 receptor [1] = molecular target: Histamine H3 receptor (Rattus norvegicus, UniProt Q9QYN8); experiment: Displacement of [3H]NAMH from rat histamine H3 receptor expressed in CHO cells; format: cell-based
# Histamine H3 receptor (Rattus norvegicus, UniProt Q9QYN8), sequence (Q9QYN8 whole entry): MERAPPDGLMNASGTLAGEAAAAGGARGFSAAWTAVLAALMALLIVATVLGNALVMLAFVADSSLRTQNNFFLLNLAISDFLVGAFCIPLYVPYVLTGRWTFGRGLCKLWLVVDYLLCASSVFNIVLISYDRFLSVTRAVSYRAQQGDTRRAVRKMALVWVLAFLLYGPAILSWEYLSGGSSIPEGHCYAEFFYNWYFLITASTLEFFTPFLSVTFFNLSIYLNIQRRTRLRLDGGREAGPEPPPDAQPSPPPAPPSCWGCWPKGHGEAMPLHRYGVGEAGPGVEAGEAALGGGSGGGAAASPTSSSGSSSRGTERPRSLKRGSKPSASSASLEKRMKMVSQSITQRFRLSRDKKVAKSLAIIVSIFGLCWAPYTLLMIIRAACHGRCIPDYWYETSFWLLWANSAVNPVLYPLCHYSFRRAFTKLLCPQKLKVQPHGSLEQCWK
# Histamine H3 receptor [2] = molecular target: T2, Histamine H3 receptor (Homo sapiens, UniProt Q9Y5N1); experiment: Displacement of [3H]NAMH from human histamine H3 receptor expressed in CHO cells; format: cell-based
# T2 sequence (Q9Y5N1 whole entry): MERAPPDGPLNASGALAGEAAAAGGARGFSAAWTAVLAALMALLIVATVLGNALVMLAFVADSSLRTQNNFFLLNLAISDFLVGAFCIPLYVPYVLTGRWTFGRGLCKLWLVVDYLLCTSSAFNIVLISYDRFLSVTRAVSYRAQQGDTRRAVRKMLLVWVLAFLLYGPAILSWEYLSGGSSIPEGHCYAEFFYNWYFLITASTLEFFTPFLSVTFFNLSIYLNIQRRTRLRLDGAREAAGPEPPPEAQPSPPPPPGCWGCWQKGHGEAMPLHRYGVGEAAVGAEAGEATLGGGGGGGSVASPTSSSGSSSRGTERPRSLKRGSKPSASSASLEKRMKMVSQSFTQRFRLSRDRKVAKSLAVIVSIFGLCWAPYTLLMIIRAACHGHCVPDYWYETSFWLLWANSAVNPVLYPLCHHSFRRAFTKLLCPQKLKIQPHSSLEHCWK
# [3] = Clearance in rat at […], iv; format: ADME, organism-based; conditions: in vivo
# [4] = Oral bioavailability in rat at 5 mg/kg; format: ADME, organism-based; conditions: in vivo
# [5] = Volume of distribution in rat at […], iv; format: ADME, organism-based; conditions: in vivo
# Cytochrome P450 2C19 = Cytochrome P450 2C19 (Homo sapiens, UniProt P33261); experiment: (§2) Inhibition of CYP2C19; format: ADME
# Cytochrome P450 2C19, sequence (P33261 whole entry): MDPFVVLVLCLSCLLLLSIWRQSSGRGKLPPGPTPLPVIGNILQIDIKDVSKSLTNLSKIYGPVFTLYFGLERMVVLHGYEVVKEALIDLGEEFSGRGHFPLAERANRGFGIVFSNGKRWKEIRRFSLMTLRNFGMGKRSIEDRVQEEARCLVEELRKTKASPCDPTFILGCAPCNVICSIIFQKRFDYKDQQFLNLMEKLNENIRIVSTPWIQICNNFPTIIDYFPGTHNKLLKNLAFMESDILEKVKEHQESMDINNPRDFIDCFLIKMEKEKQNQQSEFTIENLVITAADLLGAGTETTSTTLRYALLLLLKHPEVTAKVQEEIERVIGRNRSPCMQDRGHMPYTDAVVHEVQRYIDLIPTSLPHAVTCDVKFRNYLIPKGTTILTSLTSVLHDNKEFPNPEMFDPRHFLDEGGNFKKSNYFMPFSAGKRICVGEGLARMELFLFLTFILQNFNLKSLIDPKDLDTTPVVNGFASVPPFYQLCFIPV
# Cytochrome P450 3A4 = Cytochrome P450 3A4 (Homo sapiens, UniProt P08684); experiment: (§3) Inhibition of CYP3A4; format: ADME
# Cytochrome P450 3A4, sequence (P08684 whole entry): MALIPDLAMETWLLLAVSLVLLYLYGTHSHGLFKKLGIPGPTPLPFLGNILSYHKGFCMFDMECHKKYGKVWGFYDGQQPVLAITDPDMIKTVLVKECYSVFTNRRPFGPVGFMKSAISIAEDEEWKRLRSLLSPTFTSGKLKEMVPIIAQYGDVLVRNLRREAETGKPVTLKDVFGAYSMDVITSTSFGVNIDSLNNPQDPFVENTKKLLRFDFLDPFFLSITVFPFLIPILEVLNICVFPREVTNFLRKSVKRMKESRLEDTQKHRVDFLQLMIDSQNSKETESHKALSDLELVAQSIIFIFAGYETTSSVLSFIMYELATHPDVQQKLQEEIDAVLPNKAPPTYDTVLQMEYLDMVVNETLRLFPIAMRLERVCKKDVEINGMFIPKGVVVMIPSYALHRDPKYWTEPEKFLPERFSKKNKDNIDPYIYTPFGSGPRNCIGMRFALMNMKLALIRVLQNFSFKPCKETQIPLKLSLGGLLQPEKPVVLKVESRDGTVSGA
# Cytochrome P450 2C9 = Cytochrome P450 2C9 (Homo sapiens, UniProt P11712); experiment: (§4) Inhibition of CYP2C9; format: ADME
# Cytochrome P450 2C9, sequence (P11712 whole entry): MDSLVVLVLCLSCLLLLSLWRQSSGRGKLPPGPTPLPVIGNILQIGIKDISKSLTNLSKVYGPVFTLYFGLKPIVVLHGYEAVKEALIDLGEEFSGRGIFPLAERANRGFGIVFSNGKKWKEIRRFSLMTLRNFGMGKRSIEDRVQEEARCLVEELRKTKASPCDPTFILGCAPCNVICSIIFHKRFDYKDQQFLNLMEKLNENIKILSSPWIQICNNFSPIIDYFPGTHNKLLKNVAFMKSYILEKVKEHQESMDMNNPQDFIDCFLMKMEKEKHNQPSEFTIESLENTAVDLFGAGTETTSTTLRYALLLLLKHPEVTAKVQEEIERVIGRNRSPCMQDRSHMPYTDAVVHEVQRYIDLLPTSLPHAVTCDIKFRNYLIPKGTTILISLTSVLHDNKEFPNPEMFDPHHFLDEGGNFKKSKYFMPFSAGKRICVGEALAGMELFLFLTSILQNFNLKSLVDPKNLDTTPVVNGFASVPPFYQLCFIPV
# [6] = Half life in dog liver microsomes; format: ADME, Canis lupus familiaris, Microsome
# [7] = Cmax in rat at 5 mg/kg, po; format: ADME, organism-based; set-up: dose 5 mg/kg, route oral; conditions: in vivo
# Rattus norvegicus [8] = experiment: Wake promoting activity in EEG/EMG Sprague-Dawley rat model at 10 to 30 mg/kg, ip measured after 9 hrs; format: functional, organism-based
# Histamine H3 receptor [9] = molecular target: T2, Histamine H3 receptor; experiment: Inverse agonist activity at human histamine H3 receptor by [35S]-GTPgammaS binding assay; format: functional
# [10] = Half life in rat liver microsomes; format: ADME, Microsome
# Rattus norvegicus [11] = experiment: Inhibition of RAMH-induced dipsogenia in ip dosed rat; format: functional
# Cytochrome P450 2D6 = Cytochrome P450 2D6 (Homo sapiens, UniProt P10635); experiment: (§5) Inhibition of CYP2D6; format: ADME
# Cytochrome P450 2D6, sequence (P10635 whole entry): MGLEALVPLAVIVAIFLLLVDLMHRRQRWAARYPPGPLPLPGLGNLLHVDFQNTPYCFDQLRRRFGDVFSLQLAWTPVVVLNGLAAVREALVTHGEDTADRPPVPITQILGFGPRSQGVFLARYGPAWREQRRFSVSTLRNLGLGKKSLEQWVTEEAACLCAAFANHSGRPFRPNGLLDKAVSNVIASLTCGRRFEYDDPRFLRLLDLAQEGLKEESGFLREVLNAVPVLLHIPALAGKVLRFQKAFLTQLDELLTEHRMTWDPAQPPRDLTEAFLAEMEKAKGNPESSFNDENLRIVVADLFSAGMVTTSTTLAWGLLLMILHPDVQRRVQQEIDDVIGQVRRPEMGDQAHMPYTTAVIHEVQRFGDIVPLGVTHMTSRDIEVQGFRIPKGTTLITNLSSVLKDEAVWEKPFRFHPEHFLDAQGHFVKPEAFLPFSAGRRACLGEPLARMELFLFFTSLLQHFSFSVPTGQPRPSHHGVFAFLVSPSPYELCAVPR
# [12] = Half life in monkey liver microsomes; format: ADME, Macaca mulatta, Microsome; conditions: rhesus monkey
# Histamine H3 receptor [13] = molecular target: T2, Histamine H3 receptor; experiment: Antagonist activity at human histamine H3 receptor assessed as inhibition of [35S]-GTPgammaS binding; format: functional
# [14] = Half life in mouse liver microsomes; format: ADME, Microsome
# [15] = Ratio of drug level in brain to plasma in rat at 5 mg/kg, po measured after 6 hrs; format: ADME, organism-based; set-up: dose 5 mg/kg, route oral; conditions: read-out: BPR
# [16] = Half life in rat at […], iv; format: ADME, organism-based; conditions: in vivo
# [17] = AUC in rat at 5 mg/kg, po; format: ADME, organism-based; set-up: dose 5 mg/kg, route oral; conditions: plasma
# [18] = Half life in human liver microsomes; format: ADME, Microsome
# CYP1A2 = molecular target: T3, CYP1A2 (Homo sapiens, UniProt P05177); experiment: as §1; format: ADME
# T3 sequence (P05177 whole entry): T1 sequence (P05177 whole entry)
# [19] = molecular target: Histamine H1 receptor (Homo sapiens) (UniProt P35367); experiment: Inhibition of human histamine H1 receptor at 10 uM
# Histamine H1 receptor (Homo sapiens), sequence (P35367 whole entry): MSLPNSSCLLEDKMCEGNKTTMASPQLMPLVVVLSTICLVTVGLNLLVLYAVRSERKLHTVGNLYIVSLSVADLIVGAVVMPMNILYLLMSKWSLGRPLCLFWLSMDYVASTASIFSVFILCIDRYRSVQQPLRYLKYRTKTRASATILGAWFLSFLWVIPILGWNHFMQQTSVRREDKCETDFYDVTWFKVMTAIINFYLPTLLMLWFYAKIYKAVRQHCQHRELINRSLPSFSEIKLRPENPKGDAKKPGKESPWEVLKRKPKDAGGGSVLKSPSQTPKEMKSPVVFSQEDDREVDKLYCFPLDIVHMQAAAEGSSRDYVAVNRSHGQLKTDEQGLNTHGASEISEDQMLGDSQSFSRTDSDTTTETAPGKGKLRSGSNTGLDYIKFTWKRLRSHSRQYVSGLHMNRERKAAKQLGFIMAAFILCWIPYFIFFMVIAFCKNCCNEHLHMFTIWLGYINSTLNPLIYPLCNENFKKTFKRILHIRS
# [20] = Plasma protein binding in human; format: ADME, cell-free; conditions: read-out: PPB
# Caco-2 = experiment: Permeability across human Caco2 cells; format: ADME, cell-based
# CYP2C19 = CYP2C19 (Homo sapiens, UniProt P33261); experiment: as §2; format: ADME
# CYP2C19, sequence (P33261 whole entry): as the sequence (P33261 whole entry) above
# CYP3A4 = CYP3A4 (Homo sapiens, UniProt P08684); experiment: as §3; format: ADME
# CYP3A4, sequence (P08684 whole entry): as the sequence (P08684 whole entry) above
# CYP2C9 = CYP2C9 (Homo sapiens, UniProt P11712); experiment: as §4; format: ADME
# CYP2C9, sequence (P11712 whole entry): as the sequence (P11712 whole entry) above
# [21] = molecular target: Histamine H4 receptor (Homo sapiens) (UniProt Q9H3N8); experiment: Inhibition of human histamine H4 receptor at 10 uM
# [22] = molecular target: Histamine H2 receptor (Homo sapiens) (UniProt P25021); experiment: Inhibition of human histamine H2 receptor at 10 uM
# Histamine H2 receptor (Homo sapiens), sequence (P25021 whole entry): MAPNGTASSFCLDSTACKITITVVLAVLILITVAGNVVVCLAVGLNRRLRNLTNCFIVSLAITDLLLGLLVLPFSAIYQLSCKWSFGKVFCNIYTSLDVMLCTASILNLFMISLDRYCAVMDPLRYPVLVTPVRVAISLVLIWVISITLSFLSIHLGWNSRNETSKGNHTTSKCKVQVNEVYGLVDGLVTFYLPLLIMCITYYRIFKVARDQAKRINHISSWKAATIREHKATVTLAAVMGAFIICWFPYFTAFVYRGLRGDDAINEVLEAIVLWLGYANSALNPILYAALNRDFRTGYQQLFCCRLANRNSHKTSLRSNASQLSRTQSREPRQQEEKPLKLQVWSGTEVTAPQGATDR
# CYP2D6 = CYP2D6 (Homo sapiens, UniProt P10635); experiment: as §5; format: ADME
# CYP2D6, sequence (P10635 whole entry): as the sequence (P10635 whole entry) above
# hERG (KCNH2) = hERG (KCNH2) (Homo sapiens, UniProt Q12809); experiment: Inhibition of human ERG at 10 uM
# [23] = Plasma protein binding in rat; format: ADME, cell-free; conditions: read-out: PPB
structure (smiles),measurement,setting,value
COC(=O)N1CCN(CC(=O)c2ccc(OCCCN3CCC[C@H]3C)cc2)CC1,IC50,Cytochrome P450 1A2,> 30000 nM
same,Ki,Histamine H3 receptor [1],19 nM
same,Ki,Histamine H3 receptor [2],3.2 nM
same,clearance,[3],24 mL/min/kg
same,bioavailability,[4],22%
same,Vd,[5],5.4 L/kg
same,IC50,Cytochrome P450 2C19,> 30000 nM
same,IC50,Cytochrome P450 3A4,> 30000 nM
same,IC50,Cytochrome P450 2C9,> 30000 nM
same,half-life,[6],> 40 min
same,Cmax,[7],128 ng/mL
same,Activity,Rattus norvegicus [8],inactive
same,EC50,Histamine H3 receptor [9],0.9 nM
same,half-life,[10],> 40 min
same,ED50,Rattus norvegicus [11],0.54 mg/kg
same,inhibition,Rattus norvegicus [11],Dose-dependent effect
same,IC50,Cytochrome P450 2D6,> 30000 nM
same,half-life,[12],> 40 min
same,Kb,Histamine H3 receptor [13],0.4 nM
same,half-life,[14],> 40 min
same,Kp at 6 h,[15],4.3
same,half-life,[16],156 min
same,AUC,[17],619 ng·h/mL
same,half-life,[18],> 40 min
C[C@@H]1CCCN1CCCOc1ccc(C(=O)CN2CCN(C(=O)Oc3ccc(F)cc3)CC2)cc1,Ki,Histamine H3 receptor [1],3.7 nM
same,Ki,Histamine H3 receptor [2],3 nM
C[C@@H]1CCCN1CCCOc1ccc(C(=O)CN2CCC(F)(F)C2)cc1,Ki,Histamine H3 receptor [1],21 nM
same,Ki,Histamine H3 receptor [2],3.4 nM
C[C@@H]1CCCN1CCCOc1ccc(C(=O)CN2CCCC(F)(F)C2)cc1,Ki,Histamine H3 receptor [1],48 nM
same,Ki,Histamine H3 receptor [2],9 nM
C[C@@H]1CCCN1CCCOc1ccc(C(=O)CN2CCC(C#N)CC2)cc1,Ki,Histamine H3 receptor [1],23 nM
same,Ki,Histamine H3 receptor [2],6.3 nM
CC(C)COC(=O)N1CCN(CC(=O)c2ccc(OCCCN3CCC[C@H]3C)cc2)CC1,Ki,Histamine H3 receptor [1],12 nM
same,Ki,Histamine H3 receptor [2],4.6 nM
C[C@@H]1CCCN1CCCOc1ccc(C(=O)CN2CCN(C(=O)c3cc4ccccc4s3)CC2)cc1,Ki,Histamine H3 receptor [1],4 nM
same,Ki,Histamine H3 receptor [2],1.2 nM
C[C@@H]1CCCN1CCCOc1ccc(C(=O)CN2CCN(C(=O)Oc3ccccc3)CC2)cc1,Ki,Histamine H3 receptor [1],6.9 nM
same,Ki,Histamine H3 receptor [2],3.9 nM
C[C@@H]1CCCN1CCCOc1ccc(C(=O)CN2CCOCC2)cc1,IC50,CYP1A2,> 30000 nM
same,inhibition,[19],< 50%
same,fraction unbound,[20],> 0.8
same,clearance,[3],126 mL/min/kg
same,Vd,[5],27 L/kg
same,permeability,Caco-2,permeable
same,IC50,CYP2C19,> 30000 nM
same,IC50,CYP3A4,> 30000 nM
same,IC50,CYP2C9,> 30000 nM
same,half-life,[6],> 40 min
same,Cmax,[7],17 ng/mL
same,inhibition,[21],< 50%
same,half-life,[10],> 40 min
same,inhibition,[22],< 50%
same,IC50,CYP2D6,> 30000 nM
same,inhibition at 10 µM,hERG (KCNH2),21%
same,half-life,[12],> 40 min
same,fraction unbound,[23],> 0.8
same,half-life,[14],> 40 min
same,Kp at 6 h,[15],50
same,half-life,[16],138 min
same,AUC,[17],81 ng·h/mL
same,half-life,[18],> 40 min
C[C@@H]1CCCN1CCCOc1ccc(C(=O)CN2CCN(C(=O)c3ccc(F)cc3)CC2)cc1,Ki,Histamine H3 receptor [1],5.8 nM
same,Ki,Histamine H3 receptor [2],0.6 nM
